Assay results published in paper PMC7956344, “Structure Elucidation and Cholinesterase Inhibition Activity of Two New Minor Amaryllidaceae Alkaloids” (Molecules, 2021).
Like-named read-outs stand apart in the source and are kept apart here.

Assays:
[1] = target: T1, human butyrylcholinesterase (hBuChE) (Homo sapiens, UniProt P06276); experiment: hBuChE inhibition assay (modified Ellman method, BuTChI substrate); assay type: biochemical; settings: for IC50: mean ± SEM of three independent measurements, each in triplicate; for % Inhibition hBuChE ± SEM / inhibition at 100 µM: tested at 100 µM compound concentration; for % Inhibition hBuChE ± SEM: 100 µM; for inhibition at 100 µM: read-out: % Inhibition hBuChE ± SEM
T1 sequence (P06276 29-602): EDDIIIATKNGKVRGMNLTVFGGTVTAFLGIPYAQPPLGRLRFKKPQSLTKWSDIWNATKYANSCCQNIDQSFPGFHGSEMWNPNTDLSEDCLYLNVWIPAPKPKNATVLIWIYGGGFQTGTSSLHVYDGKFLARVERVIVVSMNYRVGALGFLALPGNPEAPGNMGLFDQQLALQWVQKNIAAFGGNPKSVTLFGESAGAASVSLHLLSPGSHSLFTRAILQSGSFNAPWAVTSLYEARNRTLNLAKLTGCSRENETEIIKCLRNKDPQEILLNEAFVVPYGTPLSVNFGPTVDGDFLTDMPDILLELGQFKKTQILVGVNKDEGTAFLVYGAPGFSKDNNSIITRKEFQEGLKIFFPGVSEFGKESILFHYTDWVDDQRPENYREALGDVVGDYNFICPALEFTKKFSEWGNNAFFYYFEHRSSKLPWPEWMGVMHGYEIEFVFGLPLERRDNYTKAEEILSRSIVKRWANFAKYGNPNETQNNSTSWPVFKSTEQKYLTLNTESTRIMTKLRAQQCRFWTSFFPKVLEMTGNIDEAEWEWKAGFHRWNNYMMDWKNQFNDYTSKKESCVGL

POP = settings: previously isolated narcikachnine-type alkaloids; cited from earlier work
[2] = indicated centrally active crossing of the BBB via passive diffusion; cited from earlier work
[3] = target: T1, human butyrylcholinesterase (hBuChE); settings: previously isolated narcikachnine-type alkaloids; cited from earlier work

| Compound | IC50 [1] [µM] | % Inhibition hBuChE ± SEM [1] | inhibition at 100 µM [1] [%] | IC50 (POP) [µM] | in vitro permeability (Pe) [2] | IC50 [3] [µM] |
| --- | --- | --- | --- | --- | --- | --- |
| COc1cc2c(cc1O)[C@@H](O)O[C@@H]1CC=C3CCN(C)[C@H]3[C@H]21 [9-O-demethyllycorenine (1), 9-O-demethyllycorenine] | > 100 | almost devoid of cholinesterase inhibitory activity | 30.2 ± 0.8 |  |  |  |
| COc1ccc2c3c1O[C@H]1C[C@@H](O)C=C[C@@]31CCN(C)C2 [galantamine] |  |  | 68.2 ± 1.2 |  |  |  |
| COc1cc(-c2cccc3c2N(C)CC3)c(CN2CC[C@@]34C=C[C@H](O)C[C@@H]3Oc3c(OC)ccc(c34)C2)cc1O [narciabduliine (2), narciabduliine] | 3.44 ± 0.02 | 94.1 ± 0.2% | > 90 |  |  |  |
| COc1cc(-c2cccc3c2N(C)CC3)c(CN2CC[C@@]34C=C[C@H](O)C[C@@H]3Oc3c(OC)ccc(c34)C2)c(OC)c1OC [narcieliine] |  |  |  | 163 ± 13 | 14.1 ± 1.0 × 10^−6 cm·s^−1 | 1.3 ± 0.3 |
| COc1ccc2c3c1OC1CC(=O)CCC31CCN(Cc1cc3c(cc1-c1cccc4c1N(C)CC4)OCO3)C2 (stereo not shown) [narcimatuline] |  |  |  | 29.2 ± 1 |  | 5.9 ± 0.2 |
| COc1ccc2c3c1OC1CC(O)CCC31CCN(Cc1cc3c(cc1-c1cccc4ccn(C)c14)OCO3)C2 (stereo not shown) [narcipavline] |  |  |  |  |  | 24.4 ± 1.2 |
